Results: the NIST ThermoML archive (doi:10.1021/je4009415)

Test: xn = mol fraction of the nth substance listed
Settings: Liquid, Vibrating tube method

CCOC(=O)CC [ethyl propanoate] + CCCCCCC
Settings | mass density [kg/m3]
288.15 K, x1 = 0.0524 | 695.91
288.15 K, x1 = 0.0988 | 703.07
288.15 K, x1 = 0.1463 | 710.63
288.15 K, x1 = 0.1941 | 718.6
288.15 K, x1 = 0.2514 | 728.31
288.15 K, x1 = 0.3018 | 737.02
288.15 K, x1 = 0.3473 | 745.24
288.15 K, x1 = 0.4004 | 755.32
288.15 K, x1 = 0.4483 | 764.49
288.15 K, x1 = 0.5023 | 775.33
288.15 K, x1 = 0.5493 | 785.04
288.15 K, x1 = 0.6523 | 807.55
288.15 K, x1 = 0.7155 | 821.91
288.15 K, x1 = 0.7532 | 830.95
288.15 K, x1 = 0.7965 | 841.54
288.15 K, x1 = 0.8566 | 856.59
288.15 K, x1 = 0.9037 | 868.82
288.15 K, x1 = 0.9502 | 881.54
288.15 K, x1 = 1 | 895.58
298.15 K, x1 = 0.0502 | 687.02
298.15 K, x1 = 0.0966 | 693.85
298.15 K, x1 = 0.1618 | 704.16
298.15 K, x1 = 0.24 | 717.15
298.15 K, x1 = 0.3102 | 729.24
298.15 K, x1 = 0.401 | 745.76
298.15 K, x1 = 0.4502 | 755.12
298.15 K, x1 = 0.5047 | 765.87
298.15 K, x1 = 0.598 | 785.24
298.15 K, x1 = 0.6478 | 796.11
298.15 K, x1 = 0.6968 | 807.1
298.15 K, x1 = 0.7456 | 818.46
298.15 K, x1 = 0.7933 | 829.93
298.15 K, x1 = 0.8547 | 845.07
298.15 K, x1 = 0.9029 | 857.64
298.15 K, x1 = 0.952 | 870.77
298.15 K, x1 = 1 | 884.15
308.15 K, x1 = 0.0489 | 677.99
308.15 K, x1 = 0.0972 | 685.13
308.15 K, x1 = 0.1622 | 695.08
308.15 K, x1 = 0.2109 | 702.86
308.15 K, x1 = 0.2409 | 707.93
308.15 K, x1 = 0.3084 | 719.36
308.15 K, x1 = 0.352 | 727.08
308.15 K, x1 = 0.4029 | 736.28
308.15 K, x1 = 0.44 | 743.31
308.15 K, x1 = 0.5033 | 755.53
308.15 K, x1 = 0.5515 | 765.29
308.15 K, x1 = 0.6049 | 776.34
308.15 K, x1 = 0.6546 | 787.12
308.15 K, x1 = 0.6957 | 796.27
308.15 K, x1 = 0.7472 | 808.1
308.15 K, x1 = 0.8001 | 820.72
308.15 K, x1 = 0.8549 | 834.09
308.15 K, x1 = 0.8932 | 843.97
308.15 K, x1 = 0.949 | 858.62
308.15 K, x1 = 1 | 872.62
318.15 K, x1 = 0.0535 | 669.87
318.15 K, x1 = 0.0979 | 676.31
318.15 K, x1 = 0.1459 | 683.47
318.15 K, x1 = 0.2045 | 692.71
318.15 K, x1 = 0.262 | 702.04
318.15 K, x1 = 0.3009 | 708.59
318.15 K, x1 = 0.3494 | 717.01
318.15 K, x1 = 0.4057 | 727.08
318.15 K, x1 = 0.4487 | 735.05
318.15 K, x1 = 0.5052 | 745.9
318.15 K, x1 = 0.552 | 755.16
318.15 K, x1 = 0.5969 | 764.38
318.15 K, x1 = 0.6529 | 776.27
318.15 K, x1 = 0.7022 | 787.15
318.15 K, x1 = 0.7467 | 797.21
318.15 K, x1 = 0.7935 | 808.2
318.15 K, x1 = 0.8452 | 820.6
318.15 K, x1 = 0.8929 | 832.6
318.15 K, x1 = 0.9484 | 847.05
318.15 K, x1 = 1 | 861.08
328.15 K, x1 = 0.0528 | 660.86
328.15 K, x1 = 0.1065 | 668.58
328.15 K, x1 = 0.1619 | 676.84
328.15 K, x1 = 0.2123 | 684.53
328.15 K, x1 = 0.2511 | 690.83
328.15 K, x1 = 0.3081 | 700.22
328.15 K, x1 = 0.3519 | 707.73
328.15 K, x1 = 0.4084 | 717.71
328.15 K, x1 = 0.4478 | 724.83
328.15 K, x1 = 0.5074 | 736.13
328.15 K, x1 = 0.5522 | 744.86
328.15 K, x1 = 0.6033 | 755.17
328.15 K, x1 = 0.6454 | 764.1
328.15 K, x1 = 0.7023 | 776.34
328.15 K, x1 = 0.7443 | 785.77
328.15 K, x1 = 0.7989 | 798.4
328.15 K, x1 = 0.8593 | 812.97
328.15 K, x1 = 0.8983 | 822.61
328.15 K, x1 = 0.9494 | 835.87
328.15 K, x1 = 1 | 849.41

CCOC(=O)CC [ethyl propanoate] + CCCCCCCCC
Settings | mass density [kg/m3]
288.15 K, x1 = 0.0545 | 727.07
288.15 K, x1 = 0.1159 | 733.36
288.15 K, x1 = 0.1434 | 736.52
288.15 K, x1 = 0.2218 | 745.49
288.15 K, x1 = 0.2412 | 747.88
288.15 K, x1 = 0.3158 | 757.46
288.15 K, x1 = 0.3579 | 763.17
288.15 K, x1 = 0.4121 | 770.89
288.15 K, x1 = 0.462 | 778.51
288.15 K, x1 = 0.5039 | 785.25
288.15 K, x1 = 0.5537 | 793.58
288.15 K, x1 = 0.6035 | 802.47
288.15 K, x1 = 0.6328 | 807.91
288.15 K, x1 = 0.6935 | 819.81
288.15 K, x1 = 0.7463 | 830.79
288.15 K, x1 = 0.7907 | 840.69
288.15 K, x1 = 0.895 | 866.09
288.15 K, x1 = 0.9488 | 880.62
288.15 K, x1 = 1 | 895.58
298.15 K, x1 = 0.0538 | 718.94
298.15 K, x1 = 0.0883 | 722.45
298.15 K, x1 = 0.142 | 728.05
298.15 K, x1 = 0.2152 | 736.31
298.15 K, x1 = 0.3007 | 746.83
298.15 K, x1 = 0.3555 | 754.11
298.15 K, x1 = 0.4078 | 761.4
298.15 K, x1 = 0.4592 | 769.02
298.15 K, x1 = 0.4988 | 775.19
298.15 K, x1 = 0.5511 | 783.72
298.15 K, x1 = 0.5917 | 790.84
298.15 K, x1 = 0.6562 | 802.56
298.15 K, x1 = 0.6962 | 810.32
298.15 K, x1 = 0.741 | 819.48
298.15 K, x1 = 0.7883 | 829.57
298.15 K, x1 = 0.8559 | 845.47
298.15 K, x1 = 0.9034 | 857.27
298.15 K, x1 = 0.9521 | 870.29
298.15 K, x1 = 1 | 884.15
308.15 K, x1 = 0.0558 | 711.17
308.15 K, x1 = 0.089 | 714.43
308.15 K, x1 = 0.1555 | 721.34
308.15 K, x1 = 0.2171 | 728.16
308.15 K, x1 = 0.2586 | 733.03
308.15 K, x1 = 0.3081 | 739.12
308.15 K, x1 = 0.3829 | 748.94
308.15 K, x1 = 0.4013 | 751.5
308.15 K, x1 = 0.4533 | 759.02
308.15 K, x1 = 0.5068 | 767.11
308.15 K, x1 = 0.5509 | 774.2
308.15 K, x1 = 0.6035 | 783.03
308.15 K, x1 = 0.6525 | 791.81
308.15 K, x1 = 0.6998 | 800.82
308.15 K, x1 = 0.7473 | 810.39
308.15 K, x1 = 0.794 | 820.41
308.15 K, x1 = 0.8533 | 833.93
308.15 K, x1 = 0.9006 | 845.51
308.15 K, x1 = 0.9506 | 858.66
308.15 K, x1 = 1 | 872.62
318.15 K, x1 = 0.0516 | 702.64
318.15 K, x1 = 0.0909 | 706.6
318.15 K, x1 = 0.1617 | 713.7
318.15 K, x1 = 0.219 | 719.88
318.15 K, x1 = 0.2413 | 722.49
318.15 K, x1 = 0.2923 | 728.44
318.15 K, x1 = 0.3518 | 735.96
318.15 K, x1 = 0.4062 | 743.15
318.15 K, x1 = 0.4541 | 749.92
318.15 K, x1 = 0.5056 | 757.57
318.15 K, x1 = 0.556 | 765.57
318.15 K, x1 = 0.6001 | 772.83
318.15 K, x1 = 0.6514 | 781.78
318.15 K, x1 = 0.6939 | 789.72
318.15 K, x1 = 0.7552 | 801.69
318.15 K, x1 = 0.7988 | 810.87
318.15 K, x1 = 0.8559 | 823.94
318.15 K, x1 = 0.9062 | 835.91
318.15 K, x1 = 0.9524 | 847.95
318.15 K, x1 = 1 | 861.08
328.15 K, x1 = 0.0514 | 694.83
328.15 K, x1 = 0.0965 | 699.04
328.15 K, x1 = 0.1572 | 705.05
328.15 K, x1 = 0.2061 | 710.14
328.15 K, x1 = 0.2627 | 716.42
328.15 K, x1 = 0.3163 | 722.76
328.15 K, x1 = 0.3619 | 728.36
328.15 K, x1 = 0.4059 | 734.14
328.15 K, x1 = 0.4602 | 741.6
328.15 K, x1 = 0.5053 | 748.09
328.15 K, x1 = 0.5543 | 755.65
328.15 K, x1 = 0.6024 | 763.42
328.15 K, x1 = 0.6525 | 772.01
328.15 K, x1 = 0.6996 | 780.61
328.15 K, x1 = 0.7535 | 791.02
328.15 K, x1 = 0.8019 | 801
328.15 K, x1 = 0.8606 | 813.96
328.15 K, x1 = 0.8933 | 821.83
328.15 K, x1 = 0.9504 | 836
328.15 K, x1 = 1 | 849.41
